Measured values from PMC4864329, “In vitro and in vivo efficacy, toxicity, bio-distribution and resistance selection of a novel antibacterial drug candidate” (Scientific Reports, 2016).
“And” between values parts separate entries of the source, which are not always exact repeats. Equal values may be shown once. Read-outs that look alike come from different tables or passages of the source.

System: Klebsiella pneumoniae clinical isolates
Format: cell-based
Protocol: Minimum inhibitory concentrations (MICs) of SET-M33L were determined against 76 clinical isolates of Pseudomonas aeruginosa and 73 clinical isolates of Klebsiella pneumoniae. The isolates were selected on the basis of their resistance phenotypes and major antibiotic resistance determinants, including resistance to colistin and carriage of carbapenemase-encoding genes (Table 1 and supplemental Tables S1 and S2).
MIC values were determined against a large collection of clinical isolates. Most isolates were collected during routine susceptibility testing procedures at the Clinical Microbiology Unit of Careggi University Hospital in Florence, while specific isolates were selected according to their phenotype or genotype (e.g. carriage of carbapenemase-encoding genes, inclusion in epidemic bacterial clones, resistance to colistin) from a collection of isolates already available at Department of Medical Biotechnologies, University of Siena. Detailed features of each strain, including relevant resistance phenotypes and genotypes were reported in supplemental Tables S1 and S2. MICs were determined in triplicate using a standard microdilution assay according to the guidelines of the Clinical and Laboratory Standards Institute[34]. SET-M33L was assayed using concentrations in the range 0.09–11.2 μM (0.5–64 μg/mL); testing was performed using a bacterial inoculum of 5 × 10^4 CFU/well prepared in cation-supplemented Mueller-Hinton broth (MHB) (Becton Dickinson, Franklin Lakes, NJ, USA) in a final volume of 100 μl. Results were recorded after 18–20 h of incubation at 35 °C.

Substance colistin sulfate has an MIC (isolate SI_K1, CARB, β/I, ESC, FQ, AG, COL, blaNDM) of 32 µg/mL, an MIC (isolate SI_K2, CARB, ESC, FQ, AG, blaCTX-M) of at most 0.5 µg/mL and an MIC (isolate SI_K3, CARB, β/I, ESC, AG, blaVIM) of 0.5 µg/mL. It also gave an MIC (isolate SI_K4, CARB, β/I, ESC, FQ, blaOXA-48) of 0.5 µg/mL, an MIC (isolate SI_K5, CARB, β/I, ESC, FQ, blaOXA-48) of 0.5 µg/mL and an MIC (isolate SI_K6, CARB, β/I, ESC, FQ, AG, blaKPC) of 0.5 µg/mL. It also gave an MIC (isolate SI_K7, CARB, β/I, ESC, FQ, blaKPC) of 0.5 µg/mL, an MIC (isolate SI_K8, CARB, β/I, ESC, FQ, AG, blaKPC) of at most 0.5 µg/mL and an MIC (isolate SI_K9, CARB, β/I, ESC, FQ, AG, blaKPC) of 2 µg/mL. The MIC (isolate SI_K10, CARB, β/I, ESC, FQ, COL, blaKPC) was over 32 µg/mL, the MIC (isolate SI_K11, CARB, β/I, ESC, FQ, AG, blaKPC) was at most 0.5 µg/mL and the MIC (isolate SI_K12, phenotype none) was at most 0.5 µg/mL. The MIC (isolate SI_K13, β/I, ESC, FQ, AG, ESBL) was at most 0.5 µg/mL, the MIC (isolate SI_K14, phenotype none) was at most 0.5 µg/mL and the MIC (isolate SI_K15, phenotype none) was at most 0.5 µg/mL. The MIC (isolate SI_K16, phenotype none) was at most 0.5 µg/mL, the MIC (isolate SI_K17, CARB, β/I, ESC, FQ, AG, COL, blaKPC) was over 32 µg/mL and the MIC (isolate SI_K18, phenotype none) was at most 0.5 µg/mL. For the same substance, the MIC (isolate SI_K19, ESC, ESBL) was at most 0.5 µg/mL, the MIC (isolate SI_K20, phenotype none) was at most 0.5 µg/mL and the MIC (isolate SI_K21, phenotype none) was at most 0.5 µg/mL. It also gave an MIC (isolate SI_K22, phenotype none) of at most 0.5 µg/mL, an MIC (isolate SI_K23, phenotype none) of at most 0.5 µg/mL and an MIC (isolate SI_K24, phenotype none) of at most 0.5 µg/mL. The MIC (isolate SI_K25, phenotype none) was at most 0.5 µg/mL, the MIC (isolate SI_K26, phenotype none) was at most 0.5 µg/mL and the MIC (isolate SI_K27, phenotype none) was at most 0.5 µg/mL. The MIC (isolate SI_K28, β/I, ESC, FQ, AG, ESBL) was at most 0.5 µg/mL, the MIC (isolate SI_K29, ESC, AG, blaCTX-M) was 0.5 µg/mL and the MIC (isolate SI_K30, phenotype none) was at most 0.5 µg/mL. It also gave an MIC (isolate SI_K31, β/I, ESC, FQ, AG, COL, ESBL) of 16 µg/mL, an MIC (isolate SI_K32, phenotype none) of at most 0.5 µg/mL and an MIC (isolate SI_K33, phenotype none) of at most 0.5 µg/mL. The MIC (isolate SI_K34, phenotype none) was at most 0.5 µg/mL, the MIC (isolate SI_K35, CARB, β/I, ESC, FQ, AG, blaKPC) was at most 0.5 µg/mL and the MIC (isolate SI_K36, CARB, β/I, ESC, FQ, AG, COL, blaKPC) was over 32 µg/mL. It also gave an MIC (isolate SI_K37, phenotype none) of at most 0.5 µg/mL, an MIC (isolate SI_K38, phenotype none) of at most 0.5 µg/mL and an MIC (isolate SI_K39, phenotype none) of at most 0.5 µg/mL. For the same substance, the MIC (isolate SI_K40, CARB, β/I, ESC, FQ, AG, COL, blaKPC) was > 32 μg/mL and > 24 μM, the MIC (isolate SI_K41, β/I, ESC, FQ, AG, ESBL) was ≤ 0.5 μg/mL and ≤ 0.4 μM and the MIC (isolate SI_K42, phenotype none) was ≤ 0.5 μg/mL and ≤ 0.4 μM. The MIC (isolate SI_K43, phenotype none) was ≤ 0.5 μg/mL and ≤ 0.4 μM, the MIC (isolate SI_K44, phenotype none) was ≤ 0.4 μM and ≤ 0.5 μg/mL and the MIC (isolate SI_K45, FQ) was ≤ 0.5 μg/mL and ≤ 0.4 μM. The MIC (isolate SI_K46, β/I) was ≤ 0.5 μg/mL and ≤ 0.4 μM, the MIC (isolate SI_K47, phenotype none) was ≤ 0.5 μg/mL and ≤ 0.4 μM and the MIC (isolate SI_K48, phenotype none) was ≤ 0.5 μg/mL and ≤ 0.4 μM. For the same substance, the MIC (isolate SI_K49, phenotype none) was ≤ 0.5 μg/mL and ≤ 0.4 μM, the MIC (isolate SI_K50, phenotype none) was ≤ 0.5 μg/mL and ≤ 0.4 μM and the MIC (isolate SI_K51, phenotype none) was ≤ 0.5 μg/mL and ≤ 0.4 μM. The MIC (isolate SI_K52, phenotype none) was ≤ 0.5 μg/mL and ≤ 0.4 μM, the MIC (isolate SI_K53, β/I, ESC, FQ, ESBL) was ≤ 0.5 μg/mL and ≤ 0.4 μM and the MIC (isolate SI_K54, phenotype none) was ≤ 0.5 μg/mL and ≤ 0.4 μM. For the same substance, the MIC (isolate SI_K55, β/I, ESC, FQ, AG, ESBL) was ≤ 0.5 μg/mL and ≤ 0.4 μM, the MIC (isolate SI_K56, phenotype none) was ≤ 0.5 μg/mL and ≤ 0.4 μM and the MIC (isolate SI_K57, β/I, FQ) was ≤ 0.5 μg/mL and ≤ 0.4 μM. For the same substance, the MIC (isolate SI_K58, phenotype none) was ≤ 0.5 μg/mL and ≤ 0.4 μM, the MIC (isolate SI_K59, phenotype none) was ≤ 0.5 μg/mL and ≤ 0.4 μM and the MIC (isolate SI_K60, phenotype none) was ≤ 0.5 μg/mL and ≤ 0.4 μM. The MIC (isolate SI_K61, CARB, β/I, ESC, FQ) was ≤ 0.5 μg/mL and ≤ 0.4 μM, the MIC (isolate SI_K62, CARB, β/I, ESC, FQ, AG, ESBL) was ≤ 0.5 μg/mL and ≤ 0.4 μM and the MIC (isolate SI_K63, β/I, ESC, FQ, AG, ESBL) was ≤ 0.5 μg/mL and ≤ 0.4 μM. For the same substance, the MIC (isolate SI_K64, phenotype none) was ≤ 0.5 μg/mL and ≤ 0.4 μM, the MIC (isolate SI_K65, phenotype none) was ≤ 0.5 μg/mL and ≤ 0.4 μM and the MIC (isolate SI_K66, β/I, ESC, FQ, AG, ESBL) was ≤ 0.5 μg/mL and ≤ 0.4 μM. The MIC (isolate SI_K67, β/I, ESC, FQ, AG, ESBL) was ≤ 0.5 μg/mL and ≤ 0.4 μM, the MIC (isolate SI_K68, phenotype none) was ≤ 0.5 μg/mL and ≤ 0.4 μM and the MIC (isolate SI_K69, β/I, ESC, FQ, AG, ESBL) was ≤ 0.5 μg/mL and ≤ 0.4 μM. For the same substance, the MIC (isolate SI_K70, β/I, ESC, FQ) was ≤ 0.5 μg/mL and ≤ 0.4 μM, the MIC (isolate SI_K71, CARB, β/I, ESC, FQ, blaKPC) was ≤ 0.5 μg/mL and ≤ 0.4 μM and the MIC (isolate SI_K72, CARB, β/I, ESC, FQ, AG, COL, blaNDM) was > 32 μg/mL and > 24 μM. The MIC (isolate SI_K73, CARB, ESC, FQ, AG, blaCTX-M) was ≤ 0.5 μg/mL and ≤ 0.4 μM.
